In US20260241046A1, “PROSTATE-SPECIFIC MEMBRANE ANTIGEN RECEPTOR-TARGETING RADIOPHARMACEUTICALS AND USES THEREOF” (Nuclidium AG, priority 2024, published 2026):
“Also recorded” adds a separate entry of the source.

Legend:
PSMA-expressing tumors = molecular target: T1, PSMA-expressing tumors (Homo sapiens, UniProt Q04609); test: First-in-human PET/CT study; type: in vivo; conditions: 104 MBq i.v., imaging at 3 hours, patient with metastatic prostate cancer
T1 construct: administered intravenously to a patient with known metastatic prostate cancer; from tissue; host or cells: osseous and hepatic metastases of a patient with metastatic prostate cancer
T1 sequence (Q04609 whole entry): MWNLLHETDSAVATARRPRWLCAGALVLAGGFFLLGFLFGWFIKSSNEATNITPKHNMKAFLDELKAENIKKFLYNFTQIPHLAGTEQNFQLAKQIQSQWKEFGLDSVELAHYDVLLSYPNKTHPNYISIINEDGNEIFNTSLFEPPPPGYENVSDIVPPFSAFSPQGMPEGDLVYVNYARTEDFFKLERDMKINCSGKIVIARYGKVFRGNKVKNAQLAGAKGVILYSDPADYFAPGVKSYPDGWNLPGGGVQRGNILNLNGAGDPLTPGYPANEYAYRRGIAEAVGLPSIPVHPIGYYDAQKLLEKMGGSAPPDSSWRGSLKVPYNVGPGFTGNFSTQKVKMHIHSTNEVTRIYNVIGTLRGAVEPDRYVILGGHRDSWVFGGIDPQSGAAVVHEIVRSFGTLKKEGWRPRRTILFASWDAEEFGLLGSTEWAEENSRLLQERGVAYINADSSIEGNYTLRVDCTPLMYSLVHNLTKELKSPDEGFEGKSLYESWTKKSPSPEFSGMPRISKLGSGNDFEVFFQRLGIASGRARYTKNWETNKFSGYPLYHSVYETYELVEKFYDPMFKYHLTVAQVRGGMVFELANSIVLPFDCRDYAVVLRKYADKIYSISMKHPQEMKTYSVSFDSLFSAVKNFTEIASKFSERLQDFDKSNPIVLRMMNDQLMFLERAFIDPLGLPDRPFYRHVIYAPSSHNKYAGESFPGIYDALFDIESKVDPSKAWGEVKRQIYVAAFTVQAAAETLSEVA
Protocol: A [^61Cu]Cu-NODAGA-PSMA I&T dose of 104 MBq (2.81 mCi) was administered intravenously to a patient with known metastatic prostate cancer. The patient was co-injected with 10 mg furosemide (Lasix®, Sanofi-Aventis, Frankfurt, Germany).
Imaging was performed at 3 hours following radiotracer administration on a Biograph Vision 600 (Siemens, Germany) PET/CT scanner. Images were obtained from the skull to mid-thigh and reconstructed into multiplanar PT, CT, and fused PET/CT images. CT was used for attenuation correction.

[1] = Shelf life at room temperature by reverse-phase radio-HPLC; type: physicochemical
Protocol: The shelf life of [^61Cu]Cu-NODAGA-PSMA I&T was assessed at room temperature in the reaction solution and the injection formulation at various time points after EoS. At pre-defined time points (up to 12 h), an aliquot was analyzed by radio-HPLC. The radiochemical purity was determined by analytical reverse-phase radio-HPLC using a Macherey Nagel Nucleodur ISIS C18 (5 μm, 250×4.6 mm) column. The results indicated a stability of over 95% up to 12 hours (Table 22).

LNCaP xenografted mice = test: Biodistribution studies in LNCaP xenografted mice; type: in vivo
Protocol: Unless otherwise specified, the in vivo studies were performed on athymic nude Foxn1^nu 4-6-week-old mice. Animals were injected in the shoulder with LNCaP cells (10^7 cells/200 μL) suspended in 1:1 (v: v) EMEM EBS medium and Matrigel. The in vivo experiments were performed when tumors reached a volume between 100-500 mm^3. At the intervention, all mice were between 7 and 11 weeks old. All animal experiments were performed following the guidelines for the use of living animals in scientific studies and the Swiss regulations for the protection of animals.
Quantitative biodistribution studies were performed on LNCaP xenografted mice to determine the distribution of [^61Cu]Cu-NODAGA-PSMA I&T following i.v. injection into the tail vein. The dose of the administered radiopharmaceutical was between 1.5-3.5 MBq ([…]) diluted to 100 μL with saline solution. The mice were divided into two groups of eight (5 males and 3 females) and euthanized at 1- and 4-hours post-injection. The organs of interest were then collected, rinsed, blotted, weighed, and analyzed in a gamma counter. The results were expressed as the percentage of injected activity per gram of tissue (% IA/g) and reported as mean±standard deviation in Table 25.

PSMA-expressing tissues = tested on: PSMA-expressing tissues
Protocol: The specificity of [^61Cu]Cu-NODAGA-PSMA I&T for PSMA-expressing tissues was evaluated in LNCaP xenograft mice through a blocking study. The mice were first administered with 1.3 μmol (300 μg) of 2-PMPA as a blocking agent, followed by an intravenous injection of 4-8 MBq ([…]) [^61Cu]Cu-NODAGA-PSMA I&T diluted to 100 μL in saline in the tail vein. The animals (n=4) were sacrificed 1 hour post-injection, and the organs were collected, weighed and counted in a gamma counter as already described. The results are expressed as a percentage of injected activity per gram (% IA/g) as presented in Table 27 and are compared with the results obtained from biodistribution studies.
PET/CT imaging was also performed at 1 hour post-injection.

## O=C([O-])CN1CCN(CC(=O)[O-])CCN([C@H](CCC(=O)N[C@H](Cc2ccc(O)c(I)c2)C(=O)N[C@H](Cc2ccccc2)C(=O)N[C@H](CCCCNC(=O)CCCCCCC(=O)NCCCC[C@H](NC(=O)N[C@@H](CCC(=O)O)C(=O)O)C(=O)O)C(=O)O)C(=O)O)CC1.[61Cu+2] [[^61Cu]Cu-NODAGA-PSMA I&T]
PSMA-expressing tumors
  radiotracer accumulation on PET/CT: multifocal osseous (arrows) and hepatic (arrowheads) metastases; also recorded: Radiotracer accumulation was noted in multifocal osseous and hepatic metastases
[1]; Injection formulation
  RCP by HPLC: 99.0 ± 0.2%
  RCP up to 3 h (n = 3): 99.5 ± 0.2%
  RCP up to 6 h (n = 3): 99.0 ± 0.5%
  RCP up to 9 h (n = 3): 99.1 ± 0.5%
  RCP up to 12 h (n = 2): 99.7 ± 0.41%
[1]; Reaction solution
  RCP by HPLC: 99.4 ± 0.4%
  RCP up to 3 h (n = 3): 99.6 ± 0.2%
  RCP up to 6 h (n = 3): 99.5 ± 0.7%
  RCP up to 9 h (n = 3): 99.1 ± 0.8%
  RCP up to 12 h (n = 2): 99.7 ± 0.1%
[1]; up to 12 hours
  stability: over 95%
LNCaP xenografted mice; 1 hour post-injection
  Biodistribution, Adrenal: 17.3±3.26 % IA/g
  Biodistribution, Blood: 0.28 ± 0.06 % IA/g
  Biodistribution, Bone: 2.73 ± 0.91 % IA/g
  Biodistribution, Heart: 0.45 ± 0.15 % IA/g
  Biodistribution, Intestine: 2.11 ± 0.78 % IA/g
  Biodistribution, Kidneys: 118±13 % IA/g
  Biodistribution, LNCaP-tumor: 14.0±5.0 % IA/g
  Biodistribution, Liver: 1.02 ± 0.28 % IA/g
  Biodistribution, Lung: 1.69 ± 0.45 % IA/g
  Biodistribution, Muscle: 1.12 ± 0.32 % IA/g
  Biodistribution, Pancreas: 0.97 ± 0.36 % IA/g
  Biodistribution, Salivary glands: 2.01±0.33 % IA/g
  Biodistribution, Spleen: 6.04±1.87 % IA/g
  Biodistribution, Stomach: 1.13 ± 0.20 % IA/g
  Tumor/Blood uptake ratio: 50
  Tumor/Kidney uptake ratio: 0.12
  Tumor/Liver uptake ratio: 14
  Tumor/Muscles uptake ratio: 13
  Tumor/Salivary gland uptake ratio: 7
LNCaP xenografted mice; 4 hours post-injection
  Biodistribution, Adrenal: 8.32±2.87 % IA/g
  Biodistribution, Blood: 0.10±0.03 % IA/g
  Biodistribution, Bone: 1.34 ± 0.48 % IA/g
  Biodistribution, Heart: 0.22 ± 0.05 % IA/g
  Biodistribution, Intestine: 1.06 ± 0.50 % IA/g
  Biodistribution, Kidneys: 91±10 % IA/g
  Biodistribution, LNCaP-tumor: 10.7±3.3 % IA/g
  Biodistribution, Liver: 0.72 ± 0.11 % IA/g
  Biodistribution, Lung: 0.74 ± 0.19 % IA/g
  Biodistribution, Muscle: 0.50 ± 0.22 % IA/g
  Biodistribution, Pancreas: 0.45 ± 0.09 % IA/g
  Biodistribution, Salivary glands: 0.52±0.06 % IA/g
  Biodistribution, Spleen: 1.28 ± 0.39 % IA/g
  Biodistribution, Stomach: 0.66 ± 0.15 % IA/g
  Tumor/Blood uptake ratio: 107
  Tumor/Kidney uptake ratio: 0.12
  Tumor/Liver uptake ratio: 15
  Tumor/Muscles uptake ratio: 21
  Tumor/Salivary gland uptake ratio: 21
PSMA-expressing tissues; 1 hour post-injection
  Biodistribution with 2-PMPA blocking, Adrenal: 0.96±0.87 % IA/g
  Biodistribution with 2-PMPA blocking, Blood: 0.44 ± 0.50 % IA/g
  Biodistribution with 2-PMPA blocking, Bone: 0.39 ± 0.24 % IA/g
  Biodistribution with 2-PMPA blocking, Heart: 0.34 ± 0.27 % IA/g
  Biodistribution with 2-PMPA blocking, Intestine: 0.87 ± 0.50 % IA/g
  Biodistribution with 2-PMPA blocking, Kidneys: 4.59±0.50 % IA/g
  Biodistribution with 2-PMPA blocking, LNCaP-tumor: 0.68±0.54 % IA/g
  Biodistribution with 2-PMPA blocking, Liver: 1.29 ± 0.53 % IA/g
  Biodistribution with 2-PMPA blocking, Lung: 0.67 ± 0.40 % IA/g
  Biodistribution with 2-PMPA blocking, Muscle: 0.32 ± 0.36 % IA/g
  Biodistribution with 2-PMPA blocking, Pancreas: 0.29 ± 0.19 % IA/g
  Biodistribution with 2-PMPA blocking, Salivary glands: 0.51 ± 0.30 % IA/g
  Biodistribution with 2-PMPA blocking, Spleen: 0.33±0.16 % IA/g
  Biodistribution with 2-PMPA blocking, Stomach: 0.62 ± 0.28 % IA/g
PSMA-expressing tissues; LNCaP xenograft mice
  in vivo stability (transchelation): stable in vivo, with limited transchelation phenomena
